Experimental data from patent US20190209506A1, “METHODS OF REDUCING OR PREVENTING OXIDATION OF LDL OR LIPID MEMBRANES IN A SUBJECT IN NEED THEREOF” (Amarin Pharmaceuticals Ireland Limited, priority 2018, published 2019).
Several values for one entry are separate records, joined by “and”; a condition that tells them apart may be missing. Equal values may be shown once. One block for each compound: values may come before it.

Legend:
Assay type in all cases: biochemical
[1] = Glucose-induced membrane lipid peroxidation (LOOH, CHOD-iodide assay) in DLPC/cholesterol vesicles (Examples 4, 5); details: for inhibition of the peroxidative effects of glucose (LOOH formation) / effect on LOOH formation / lipid peroxidation: 1:30 drug-to-phospholipid mole ratio; for effect on LOOH formation / lipid peroxidation: 72- and 96-hour time points
Experimental: All test compounds were further diluted in ethanol or aqueous buffer as needed. Glucose was prepared in saline buffer (0.5 mM HEPES, 154 mM NaCl, pH 7.3) at 11.0 mM (200 mg/dL). CHOD-iodide color reagent (stock) was prepared, with slight modification, as described by from El-Saadani et al. (J. […] Samples were shell-dried under nitrogen gas and placed under vacuum for 1 h to remove residual solvent. […] Lipid suspensions were then vortexed for 3 min at ambient temperature to form MLVs. All MLV samples were subjected to time-dependent autoxidation by incubating at 37° C. in an uncovered, shaking water bath. This method allows lipid peroxidation to occur gradually without requiring the use of exogenous initiators. Small aliquots (5-100 μL) of each sample were removed, immediately following MLV preparation (0 hour) and after exposing samples to oxidative conditions for 72 or 96 hour, and combined with 1.0 mL of activated CHOD-iodide color reagent. Aliquot volume was reduced with each successive time point to ensure that spectrophotometric readings were within the optimal adsorption range. Test samples were covered and incubated in darkness at room temperature for at least 4 hr. Sample absorbances were then measured against a CHOD blank at 365 nm using a Beckman DU-640 spectrophotometer. The CHOD colorimetric assay is based on the oxidation of iodide (I^−) by lipid hydroperoxide (LOOH) to form triiodide the quantity of which is directly proportional to the amount of LOOH present in the lipid sample. The molar absorptivity (ε) of I3^− is 2.46×10^4 M^−1 cm^−1 at 365 nm. […] All MLV samples were subjected to time-dependent autoxidation by incubating at 37° C. in an uncovered, shaking water bath. This method allows lipid peroxidation to occur gradually without requiring the use of exogenous initiators. Small aliquots (5-100 μL) of each sample were removed, immediately following MLV preparation (0 hr) and after exposing samples to oxidative conditions for 72 or 96 hr, and combined with 1.0 mL of activated CHOD-iodide color reagent. Aliquot volume was reduced with each successive time point to ensure that spectrophotometric readings were within the optimal adsorption range. Test samples were covered and incubated in darkness at room temperature for at least 4 hr. Sample absorbances were then measured against a CHOD blank at 365 nm using a Beckman DU-640 spectrophotometer. […] The molar absorptivity (ε) of I3^− is 2.46×10^4 M^−1 cm^−1 at 365 nm.

[2] = tested on: human sdLDL; test: Glucose-induced sdLDL oxidation, MDA/TBARS (Example 10); details: glucose 200 mg/dL
Experimental: Vitamin E (α-tocopherol) purchased from Sigma-Aldrich was prepared in ethanol at 1.0 mM (ε=3.06×10^4M^−1 cm^−1 at 294 nm) prior to experimental use. Test compounds were further diluted in ethanol or aqueous buffer as needed. Phosphate Buffered Saline (PBS) purchased from Sigma-Aldrich was prepared in double distilled water at 10 mM (138 mM NaCl, 2.7 mM KCl, pH 7.4). Glucose prepared in PBS was added to test samples to achieve a final concentration of 11.0 mM (200 mg/dL).
LDL and sdLDL were isolated from the plasma of healthy volunteers by iodixanol density gradient ultracentrifugation and adjusted to a final apolipoprotein concentration of 10 mg/mL. […] Sample aliquots were incubated at 100° C. for 30 minutes and then assayed for the formation of thiobarbituric acid-reactive substances (TBARS), having a molar absorptivity (ε) value of 1.56×10^5 M^−1 cm^−1 at 532 nm and were derived principally from the reaction of thiobarbituric acid with malondialdehyde (MDA). Lipid oxidation was measured by the colorimetric detection of malondialdehyde (MDA), a marker of oxidative stress.

[3] = tested on: human LDL; test: Copper-induced LDL oxidation, dose and time dependence, MDA (Example 17)
Experimental: LDL was isolated from human plasma by isopycnic centrifugation, separated into test samples of 100 μg/mL, and incubated at 37° C. for 30 min in the absence (vehicle) or presence of EPA over a range of concentrations of 1 to 10 μM. The samples were subsequently subjected to copper-induced oxidation. Following the copper-induced oxidation, LDL oxidation was measured over the course of six hours. Tables 8 and 9 enumerate the changes in MDA concentration expressed as molar equivalents for each of the vehicle and EPA test samples as a function of time (i.e., at 0 hours, 1 hour, 2 hours, 2.5 hours, and 3 hours).

- IC50 [2]: < 1 µM
- IC50 ([3]; at 6 hours, read-out: half-maximum concentration of inhibition of LDL oxidation): 5 µM
SMILES: CC/C=C\C/C=C\C/C=C\C/C=C\C/C=C\CCCC(=O)O [EPA, cis-5,8,11,14,17-eicosapentaenoic acid]
- antioxidant effect (LOOH formation) ([1]; 1.0 μM, glucose 200 mg/dL, 96 hours): separate and potent antioxidant effects
- inhibition of the peroxidative effects of glucose (LOOH formation) ([1]; glucose 200 mg/dL, 72 hours): 88%
- inhibition of the peroxidative effects of glucose (LOOH formation) ([1]; glucose 200 mg/dL, 96 hours): 86%
- effect on LOOH formation / lipid peroxidation ([1]; glucose): significantly inhibited LOOH formation
- effect on membrane LOOH formation ([1]; EPA at 1.0 and 5.0 μM, glucose): inhibit membrane LOOH formation in a dose-dependent manner
- LOOH formation compared to vehicle, glucose only, glucose and EA, glucose and ETE ([1]; Example 5, model membranes treated with glucose): significantly less LOOH formation
- inhibition of sdLDL oxidation compared to vehicle controls ([2]; 10.0 μM): 94%
- sdLDL oxidation (formation of MDA) ([2]; 10.0 μM): 0.2 ± 0.1 µM
- MDA Equivalent ([3]; EPA 1.0 μM, 0 Hour): 0.24 µM and 0.26 µM
- MDA Equivalent ([3]; EPA 1.0 μM, 1 Hour): 3.85 µM and 3.14 µM and 2.87 µM
- MDA Equivalent ([3]; EPA 1.0 μM, 2 Hour): 10.33 µM and 10.92 µM and 10.63 µM
- MDA Equivalent ([3]; EPA 1.0 μM, 2.5 Hour): 10.60 µM and 10.92 µM and 10.65 µM
- MDA Equivalent ([3]; EPA 1.0 μM, 3 Hour): 9.44 µM and 9.95 µM and 9.93 µM
- MDA Equivalent ([3]; EPA 1.0 μM, 3.5 Hour): 10.13 µM and 10.87 µM
- MDA Equivalent ([3]; EPA 1.0 μM, 4 Hour): 8.93 µM and 9.39 µM
- MDA Equivalent ([3]; EPA 1.0 μM, 6 Hour): 9.79 µM and 10.10 µM
- MDA Equivalent ([3]; EPA 2.0 μM, 0 Hour): 0.25 µM and 0.26 µM and 0.19 µM
- MDA Equivalent ([3]; EPA 2.0 μM, 1 Hour): 1.15 µM and 1.04 µM
- MDA Equivalent ([3]; EPA 2.0 μM, 2 Hour): 7.34 µM and 7.35 µM and 7.67 µM
- MDA Equivalent ([3]; EPA 2.0 μM, 2.5 Hour): 9.45 µM and 9.62 µM and 9.60 µM
- MDA Equivalent ([3]; EPA 3.0 μM, 0 Hour): 0.21 µM and 0.22 µM
- MDA Equivalent ([3]; EPA 3.0 μM, 1 Hour): 0.56 µM and 0.57 µM and 0.53 µM
- MDA Equivalent ([3]; EPA 3.0 μM, 2 Hour): 1.72 µM and 1.78 µM and 1.74 µM
- MDA Equivalent ([3]; EPA 3.0 μM, 2.5 Hour): 3.09 µM and 3.01 µM and 2.91 µM
- MDA Equivalent ([3]; EPA 3.5 μM, 0 Hour): 0.17 µM and 0.26 µM and 0.29 µM
- MDA Equivalent ([3]; EPA 3.5 μM, 2 Hour): 1.04 µM and 1.05 µM and 0.90 µM
- MDA Equivalent ([3]; EPA 3.5 μM, 2.5 Hour): 1.16 µM and 1.43 µM and 0.95 µM
- MDA Equivalent ([3]; EPA 4.0 μM, 0 Hour): 0.19 µM and 0.21 µM and 0.22 µM
- MDA Equivalent ([3]; EPA 4.0 μM, 1 Hour): 0.37 µM and 0.41 µM and 0.40 µM
- MDA Equivalent ([3]; EPA 4.0 μM, 2 Hour): 1.00 µM and 0.78 µM and 0.71 µM
- MDA Equivalent ([3]; EPA 4.0 μM, 2.5 Hour): 1.26 µM and 0.94 µM and 0.80 µM
- MDA Equivalent ([3]; EPA 4.5 μM, 0 Hour): 0.28 µM and 0.17 µM and 0.18 µM
- MDA Equivalent ([3]; EPA 4.5 μM, 1 Hour): 0.28 µM and 0.30 µM and 0.21 µM
- MDA Equivalent ([3]; EPA 4.5 μM, 2 Hour): 0.38 µM and 0.50 µM and 0.44 µM
- MDA Equivalent ([3]; EPA 4.5 μM, 2.5 Hour): 0.36 µM and 0.19 µM and 0.31 µM
- MDA Equivalent ([3]; EPA 5.0 μM, 0 Hour): 0.19 µM and 0.26 µM and 0.27 µM
- MDA Equivalent ([3]; EPA 5.0 μM, 2 Hour): 0.35 µM and 0.33 µM and 0.30 µM
- MDA Equivalent ([3]; EPA 5.0 μM, 2.5 Hour): 0.22 µM and 0.24 µM and 0.21 µM
- MDA Equivalent ([3]; EPA 10.0 μM, 0 Hour): 0.21 µM and 0.24 µM and 0.29 µM
- MDA Equivalent ([3]; EPA 10.0 μM, 1 Hour): 0.12 µM and 0.06 µM
- MDA Equivalent ([3]; EPA 10.0 μM, 2 Hour): 0.27 µM and 0.29 µM and 0.23 µM
- MDA Equivalent ([3]; EPA 10.0 μM, 2.5 Hour): 0.01 µM and 0.02 µM
- inhibition of LDL oxidation ([3]; above 7.0 μM, through 6 hours): > 88%
- time up to which oxidation was inhibited ([3]; concentrations ≤3 μM): up to 4 hours

SMILES: Cc1c(C)c2c(c(C)c1O)CC[C@@](C)(CCC[C@H](C)CCC[C@H](C)CCCC(C)C)O2 [vitamin E, α-tocopherol, reference compound]
- effect on LOOH formation / lipid peroxidation ([1]; glucose): no significant effect on lipid peroxidation
- effect on glucose-induced sdLDL oxidation ([2]; 10 μM, 1 hr): failed to inhibit sdLDL oxidation
- increase of sdLDL oxidation compared to glucose-treated controls ([2]; 10 μM, 1 hr): 63%
